Data as given in patent publication US20180256673A1, “METHODS FOR TREATING FUNGAL INFECTIONS” (priority 2015, published 2018).
≈ marks a conversion by molar mass, not a printed value.

Tests used:
[1] = tested on: azole-resistant Candida albicans R357 strain; experiment: microbe, parasite or virus in culture; type: cell-based
C. albicans NRRL Y-477 [2] = experiment: microbe, parasite or virus in culture; type: cell-based, Candida albicans
[3] = tested on: C. glabrata ATCC 90030, ATCC 2001; experiment: microbe, parasite or virus in culture; type: cell-based, Candida glabrata
C. parapsilosis CP02 [4] = experiment: microbe, parasite or virus in culture; type: cell-based, Candida parapsilosis
C. krusei ATCC 6258 [5] = experiment: microbe, parasite or virus in culture; type: cell-based, Candida krusei
[6] = tested on: azole-resistant Candida albicans (R357); experiment: Disseminated infection model in neutropenic ICR mice, kidney fungal counts (Example 10, Tables 22-23); type: in vivo
[7] = tested on: Aspergillus fumigatus (ATCC 13073); experiment: Neutropenic mouse model of disseminated aspergillosis, survival; type: in vivo; details: in vivo
[8] = Solubility of test articles in vehicle, visual observation (Table 22); type: physicochemical
Method: Test Articles. […] Amphotericin B and fluconazole were in powder form. Amphotericin B was dissolved in 0.9% NaCl. Fluconazole was dissolved in water (WFI: water for injection).

C. albicans NRRL Y-477 [9] = experiment: Broth microdilution MIC (CLSI), Examples 3 and 4
Method: Antifungal susceptibility testing. […] MIC assays were performed in triplicate.

[10] = tested on: C. glabrata ATCC 90030, ATCC 2001; experiment: Broth microdilution MIC (CLSI), Examples 3 and 4; details: for Broth MIC: 24 h, ~50% inhibition
Method: (§1) Antifungal susceptibility testing. Candida strains were cultured aerobically at 35° C. on SDA plates or in RPMI 1640 broth (pH 7.0). […] MIC assays were performed in triplicate.

C. parapsilosis CP02 [11] = experiment: Broth microdilution MIC (CLSI), Examples 3 and 4; details: CP02 wild-type; 24 h, ~50% inhibition
Method: as §1

C. krusei ATCC 6258 [12] = experiment: Broth microdilution MIC (CLSI), Examples 3 and 4; details: ATCC 6258 wild-type; 24 h, ~50% inhibition
Method: as §1

C[C@@H]1[C@H](O)[C@@H](C)/C=C/C=C/C=C/C=C/C=C/C=C/C=C/[C@H](O[C@@H]2O[C@H](C)[C@@H](O)[C@H](N)[C@@H]2O)C[C@@H]2O[C@](O)(C[C@@H](O)C[C@@H](O)[C@H](O)CC[C@@H](O)C[C@@H](O)CC(=O)O[C@H]1C)C[C@H](O)[C@H]2C(=O)O [AMB, amphotericin B]
Susceptibility (CLSI) ([1]; C. albicans R357): S | MIC ([1]; endpoint 100% inhibition): 0.5 µg/mL (≈ 0.541 µM) | MIC (C. albicans NRRL Y-477 [2]; NRRL Y-477 P20-1, selecting drug ANID, Fks1 HS1 S645Y, 48 h read): 0.5 µg/mL (≈ 0.541 µM) | MIC (C. albicans NRRL Y-477 [2]; NRRL Y-477 P20-1, selecting drug CAS): 0.25 µg/mL (≈ 0.271 µM) | MIC (C. albicans NRRL Y-477 [2]; NRRL Y-477 P20-1, selecting drug CMP1, 48 h read): 0.5 µg/mL (≈ 0.541 µM) | MIC ([3]; ATCC 2001 P20-2, selecting drug ANID, Fks1 HS1 D632Y): 1 µg/mL (≈ 1.08 µM) | MIC ([3]; ATCC 2001 P20-2, selecting drug CAS): 0.5 µg/mL (≈ 0.541 µM) | MIC ([3]; ATCC 2001 P20-2, selecting drug CMP1): 0.25 µg/mL (≈ 0.271 µM) | MIC ([3]; ATCC 90030 P20-1, selecting drug ANID, Fks2 HS1 D666I, 48 h read): 0.5 µg/mL (≈ 0.541 µM) | MIC ([3]; ATCC 90030 P20-1, selecting drug CAS, Fks2 HS1 F659I D666Y, 48 h read): 0.25 µg/mL (≈ 0.271 µM) | MIC ([3]; ATCC 90030 P20-2, selecting drug CMP1): 0.5 µg/mL (≈ 0.541 µM) | MIC (C. parapsilosis CP02 [4]; CP02 P20-1, selecting drug ANID): 0.5 µg/mL (≈ 0.541 µM) | MIC (C. parapsilosis CP02 [4]; CP02 P20-1, selecting drug CAS): 0.5 µg/mL (≈ 0.541 µM) | MIC (C. parapsilosis CP02 [4]; CP02 P20-1, selecting drug CMP1): 0.5 µg/mL (≈ 0.541 µM) | MIC (C. krusei ATCC 6258 [5]; ATCC 6258 P20-2, selecting drug ANID): 1 µg/mL (≈ 1.08 µM) | MIC (C. krusei ATCC 6258 [5]; ATCC 6258 P20-2, selecting drug CAS, Fks1 HS2 I1366S): 1 µg/mL (≈ 1.08 µM) | MIC (C. krusei ATCC 6258 [5]; ATCC 6258 P20-2, selecting drug CMP1, Fks1 HS2 I1366S): 1 µg/mL (≈ 1.08 µM) | reduction in fungal counts ([6]; 3 mg/kg IV once, 72 hr time point): two log reduction | antimicrobial effect versus vehicle (one-way ANOVA, Dunnett's test) ([6]; 48 and 72 hr after infection, Compound 1 3, 10, 30 mg/kg IP, amphotericin B 1 and 3 mg/kg IV, fluconazole 20 mg/kg PO): Significant effects | survival versus vehicle [7]: significantly longer survival than vehicle | Solubility [8]: S | MIC (C. albicans NRRL Y-477 [9]; NRRL Y-477 spontaneous mutant, Fks1 HS1 S645P): 0.25 µg/mL (≈ 0.271 µM) | Broth MIC (C. albicans NRRL Y-477 [9]; NRRL Y-477 wild-type, 24 h, ~50% inhibition): 0.5 µg/mL | MIC ([10]; ATCC 2001 spontaneous mutant, Fks2 HS1 D666N): 0.5 µg/mL (≈ 0.541 µM) | MIC ([10]; ATCC 2001 spontaneous mutant, Fks2 HS1 D666Y): 0.5 µg/mL (≈ 0.541 µM) | MIC ([10]; ATCC 2001 spontaneous mutant, Fks2 HS1 R665G): 0.25 µg/mL (≈ 0.271 µM) | MIC ([10]; ATCC 2001 spontaneous mutant, Fks2 HS1 S663F): 0.25 µg/mL (≈ 0.271 µM) | MIC ([10]; ATCC 2001 spontaneous mutant, Fks2 HS1 ΔF659): 0.25 µg/mL (≈ 0.271 µM) | MIC ([10]; ATCC 2001 spontaneous mutant, Fks2 HS2 R1378S): 0.25 µg/mL (≈ 0.271 µM) | Broth MIC ([10]; ATCC 2001 wild-type): 0.5 µg/mL | MIC ([10]; ATCC 90030 spontaneous mutant, Fks2 HS1 D666H): 0.5 µg/mL (≈ 0.541 µM) | MIC ([10]; ATCC 90030 spontaneous mutant, Fks2 HS1 ΔF659): 0.5 µg/mL (≈ 0.541 µM) | Broth MIC ([10]; ATCC 90030 wild-type): 0.5 µg/mL | Broth MIC (C. parapsilosis CP02 [11]): 0.5 µg/mL | Broth MIC (C. krusei ATCC 6258 [12]): 1 µg/mL
